The supplement of paper PMC10307832

Legend:
Assay in all cases: relative viability (nuclei count vs DMSO), 5 days (fraction); higher = more cells survive
[1] = system: CAL-12T
In short: (§1)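 Lung cancer cell lines were seeded in 1536-well plates and dosed by pin tool the next day, with either a single drug or a fixed anchor-drug dose combined with five library-drug doses (not always all listed) spaced in √10 steps. Five days later, one step fixed the cells and stained their nuclei (final 0.05% Triton X-100, 1% formaldehyde, 1 ug/ml Hoechst), and nuclei were counted on 4× images. Relative viability is the nuclei count in treated wells divided by the count in vehicle wells, and each value is the median of duplicate plates.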

[2] = system: H3255
In short: as §1

[3] = system: NCI-H2405
In short: as §1

[4] = system: NCI-H322M
In short: as §1

[5] = system: BEN
In short: as §1

[6] = system: COR-L 105
In short: as §1

[7] = system: HCC-827
In short: as §1

[8] = system: NCI-H1437
In short: as §1

[9] = system: LXF-289
In short: as §1

[10] = system: HCC-15
In short: as §1

[11] = system: LC-2-ad
In short: as §1

[12] = system: HARA
In short: as §1

[13] = system: 201T
In short: as §1

[14] = system: LCLC-103H
In short: as §1

[15] = system: NCI-H1792
In short: as §1

[16] = system: UMC-11
In short: as §1

[17] = system: NCI-H23
In short: as §1

[18] = system: NCI-H2228
In short: as §1

[19] = system: RERF-LC-KJ
In short: as §1

[20] = system: NCI-H2085
In short: as §1

[21] = system: NCI-H1651
In short: as §1

[22] = system: LU99A
In short: as §1

Q: How did the relative viability ([1]; first compound 5 µM) turn out when `O=C(O)CCCCC(CCSCc1ccccc1)SCc1ccccc1` (stereo not given) [CPI-613] + CC(C)C[C@H](NC(=O)[C@H](Cc1ccccc1)NC(=O)c1cnccn1)B(O)O [Bortezomib] (partner 0.002 µM) was run?
A: 0.866

Q: What about the relative viability ([1]; first compound 15.81 µM) of the same molecule?
A: 0.774

Q: What about the relative viability ([1]; first compound 50 µM) of the same molecule?
A: 0.758

Q: What about the relative viability ([1]; first compound 158.11 µM) of the same molecule?
A: 0.498

Q: And the relative viability ([1]; first compound 500 µM)?
A: 0.277

Q: And the relative viability ([2]; first compound 5 µM)?
A: 0.815

Q: And the relative viability ([2]; first compound 15.81 µM)?
A: 0.719

Q: What about the relative viability ([2]; first compound 50 µM) of the same molecule?
A: 0.781

Q: What about the relative viability ([2]; first compound 158.11 µM) of the same molecule?
A: 0.734

Q: And the relative viability ([2]; first compound 500 µM)?
A: 0.736

Q: And the relative viability ([3]; first compound 5 µM)?
A: 0.986

Q: What about the relative viability ([3]; first compound 15.81 µM) of the same molecule?
A: 0.961

Q: And the relative viability ([3]; first compound 50 µM)?
A: 0.891

Q: And the relative viability ([3]; first compound 158.11 µM)?
A: 0.913

Q: What about the relative viability ([3]; first compound 500 µM) of the same molecule?
A: 0.852

Q: What about the relative viability ([4]; first compound 5 µM) of the same molecule?
A: 1.19

Q: And the relative viability ([4]; first compound 15.81 µM)?
A: 1.2

Q: What about the relative viability ([4]; first compound 50 µM) of the same molecule?
A: 1.27

Q: What about the relative viability ([4]; first compound 158.11 µM) of the same molecule?
A: 1.31

Q: What about the relative viability ([4]; first compound 500 µM) of the same molecule?
A: 0.908

Q: What about the relative viability ([5]; first compound 5 µM) of the same molecule?
A: 0.819

Q: What about the relative viability ([5]; first compound 15.81 µM) of the same molecule?
A: 0.539

Q: And the relative viability ([5]; first compound 50 µM)?
A: 0.633

Q: What about the relative viability ([5]; first compound 158.11 µM) of the same molecule?
A: 0.708

Q: And the relative viability ([5]; first compound 500 µM)?
A: 0.658

Q: And the relative viability ([6]; first compound 5 µM)?
A: 0.652

Q: And the relative viability ([6]; first compound 15.81 µM)?
A: 0.859

Q: And the relative viability ([6]; first compound 50 µM)?
A: 0.542

Q: What about the relative viability ([6]; first compound 158.11 µM) of the same molecule?
A: 0.287

Q: What about the relative viability ([6]; first compound 500 µM) of the same molecule?
A: 0.195

Q: What about the relative viability ([7]; first compound 5 µM) of the same molecule?
A: 0.923

Q: And the relative viability ([7]; first compound 15.81 µM)?
A: 1.02

Q: What about the relative viability ([7]; first compound 50 µM) of the same molecule?
A: 0.926

Q: What about the relative viability ([7]; first compound 158.11 µM) of the same molecule?
A: 0.916

Q: What about the relative viability ([7]; first compound 500 µM) of the same molecule?
A: 0.786

Q: What about the relative viability ([8]; first compound 5 µM) of the same molecule?
A: 0.479

Q: And the relative viability ([8]; first compound 15.81 µM)?
A: 0.397

Q: And the relative viability ([8]; first compound 50 µM)?
A: 0.493

Q: What about the relative viability ([8]; first compound 158.11 µM) of the same molecule?
A: 0.115

Q: And the relative viability ([8]; first compound 500 µM)?
A: 0.0227

Q: And the relative viability ([9]; first compound 5 µM)?
A: 0.981

Q: And the relative viability ([9]; first compound 15.81 µM)?
A: 1.03

Q: What about the relative viability ([9]; first compound 50 µM) of the same molecule?
A: 0.94

Q: What about the relative viability ([9]; first compound 158.11 µM) of the same molecule?
A: 0.554

Q: What about the relative viability ([9]; first compound 500 µM) of the same molecule?
A: 0.069

Q: And the relative viability ([10]; first compound 5 µM)?
A: 0.938

Q: What about the relative viability ([10]; first compound 15.81 µM) of the same molecule?
A: 0.932

Q: What about the relative viability ([10]; first compound 50 µM) of the same molecule?
A: 0.905

Q: What about the relative viability ([10]; first compound 158.11 µM) of the same molecule?
A: 0.757

Q: What about the relative viability ([10]; first compound 500 µM) of the same molecule?
A: 0.394

Q: What about the relative viability ([11]; first compound 5 µM) of the same molecule?
A: 0.621

Q: What about the relative viability ([11]; first compound 15.81 µM) of the same molecule?
A: 0.932

Q: And the relative viability ([11]; first compound 50 µM)?
A: 0.979

Q: And the relative viability ([11]; first compound 158.11 µM)?
A: 0.259

Q: What about the relative viability ([11]; first compound 500 µM) of the same molecule?
A: 0.0023

Q: What about the relative viability ([12]; first compound 5 µM) of the same molecule?
A: 1.02

Q: What about the relative viability ([12]; first compound 15.81 µM) of the same molecule?
A: 1.09

Q: What about the relative viability ([12]; first compound 50 µM) of the same molecule?
A: 1.19

Q: And the relative viability ([12]; first compound 158.11 µM)?
A: 0.716

Q: What about the relative viability ([12]; first compound 500 µM) of the same molecule?
A: 0.114

Q: What about the relative viability ([13]; first compound 5 µM) of the same molecule?
A: 1.08

Q: And the relative viability ([13]; first compound 15.81 µM)?
A: 1.03

Q: What about the relative viability ([13]; first compound 50 µM) of the same molecule?
A: 1.09

Q: And the relative viability ([13]; first compound 158.11 µM)?
A: 0.995

Q: And the relative viability ([13]; first compound 500 µM)?
A: 0.949

Q: And the relative viability ([14]; first compound 5 µM)?
A: 1.08

Q: And the relative viability ([14]; first compound 15.81 µM)?
A: 0.94

Q: What about the relative viability ([14]; first compound 50 µM) of the same molecule?
A: 0.966

Q: And the relative viability ([14]; first compound 158.11 µM)?
A: 0.985

Q: What about the relative viability ([14]; first compound 500 µM) of the same molecule?
A: 1.06

Q: What about the relative viability ([15]; first compound 5 µM) of the same molecule?
A: 0.889

Q: What about the relative viability ([15]; first compound 15.81 µM) of the same molecule?
A: 0.886

Q: And the relative viability ([15]; first compound 50 µM)?
A: 0.996

Q: What about the relative viability ([15]; first compound 158.11 µM) of the same molecule?
A: 0.836

Q: And the relative viability ([15]; first compound 500 µM)?
A: 0.893

Q: What about the relative viability ([16]; first compound 5 µM) of the same molecule?
A: 0.703

Q: What about the relative viability ([16]; first compound 15.81 µM) of the same molecule?
A: 0.496

Q: And the relative viability ([16]; first compound 50 µM)?
A: 0.692

Q: And the relative viability ([16]; first compound 158.11 µM)?
A: 0.641

Q: And the relative viability ([16]; first compound 500 µM)?
A: 0.0673

Q: What about the relative viability ([17]; first compound 5 µM) of the same molecule?
A: 0.958

Q: And the relative viability ([17]; first compound 15.81 µM)?
A: 1.1

Q: And the relative viability ([17]; first compound 50 µM)?
A: 0.895

Q: What about the relative viability ([17]; first compound 158.11 µM) of the same molecule?
A: 0.175

Q: And the relative viability ([17]; first compound 500 µM)?
A: 0.0214

Q: What about the relative viability ([18]; first compound 5 µM) of the same molecule?
A: 0.918

Q: What about the relative viability ([18]; first compound 15.81 µM) of the same molecule?
A: 1.04

Q: What about the relative viability ([18]; first compound 50 µM) of the same molecule?
A: 1.07

Q: And the relative viability ([18]; first compound 158.11 µM)?
A: 0.217

Q: And the relative viability ([18]; first compound 500 µM)?
A: 0.0287

Q: What about the relative viability ([19]; first compound 5 µM) of the same molecule?
A: 1.1

Q: What about the relative viability ([19]; first compound 15.81 µM) of the same molecule?
A: 1.13

Q: What about the relative viability ([19]; first compound 50 µM) of the same molecule?
A: 1.08

Q: And the relative viability ([19]; first compound 158.11 µM)?
A: 1.07

Q: And the relative viability ([19]; first compound 500 µM)?
A: 0.958

Q: What about the relative viability ([20]; first compound 5 µM) of the same molecule?
A: 0.984

Q: What about the relative viability ([20]; first compound 15.81 µM) of the same molecule?
A: 0.847

Q: What about the relative viability ([20]; first compound 50 µM) of the same molecule?
A: 0.995

Q: And the relative viability ([20]; first compound 158.11 µM)?
A: 0.873

Q: And the relative viability ([20]; first compound 500 µM)?
A: 0.194

Q: And the relative viability ([21]; first compound 5 µM)?
A: 0.91

Q: And the relative viability ([21]; first compound 15.81 µM)?
A: 0.9

Q: What about the relative viability ([21]; first compound 50 µM) of the same molecule?
A: 0.866

Q: And the relative viability ([21]; first compound 158.11 µM)?
A: 0.914

Q: And the relative viability ([21]; first compound 500 µM)?
A: 1

Q: And the relative viability ([22]; first compound 5 µM)?
A: 1.04

Q: And the relative viability ([22]; first compound 15.81 µM)?
A: 1.04

Q: What about the relative viability ([22]; first compound 50 µM) of the same molecule?
A: 0.961

Q: And the relative viability ([22]; first compound 158.11 µM)?
A: 0.815

Q: What about the relative viability ([22]; first compound 500 µM) of the same molecule?
A: 0.08
